Assay [1] concerns the target 5-hydroxytryptamine receptor 2B (Homo sapiens, UniProt P41595). Put plainly: PDSP Secondary Binding target: HTR2B - Compounds are tested at 10 uM concentration, plate are incubated at room temperature in the dark for 90 minutes. Reaction are stopped by vacuum filtration onto 0.3% polyethyleneimine soaked filter mats using Filtermate harvester. Scintillation cocktail is then melted onto microwave-dried filters on a hot plate and the radio activity is counted in Microbia counter.

Assay [2] has as its target T1, Muscarinic acetylcholine receptor M2 (Homo sapiens, UniProt P08172).
T1 sequence (P08172 whole entry): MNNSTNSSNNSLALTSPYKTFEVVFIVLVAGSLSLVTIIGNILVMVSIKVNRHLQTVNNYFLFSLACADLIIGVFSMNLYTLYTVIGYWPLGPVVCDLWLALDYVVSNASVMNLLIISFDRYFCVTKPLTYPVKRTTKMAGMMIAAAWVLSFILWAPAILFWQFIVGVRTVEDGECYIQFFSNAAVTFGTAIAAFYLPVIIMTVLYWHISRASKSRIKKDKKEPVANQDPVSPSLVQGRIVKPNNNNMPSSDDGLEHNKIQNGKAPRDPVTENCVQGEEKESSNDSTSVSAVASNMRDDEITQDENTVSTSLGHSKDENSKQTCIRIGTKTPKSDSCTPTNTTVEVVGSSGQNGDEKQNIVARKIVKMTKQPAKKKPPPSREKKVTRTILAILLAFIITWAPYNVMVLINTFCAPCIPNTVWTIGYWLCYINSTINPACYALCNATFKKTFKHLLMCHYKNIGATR
Put plainly: PDSP Secondary Binding target: CHRM2 - Compounds are tested at 10 uM concentration, plate are incubated at room temperature in the dark for 90 minutes. Reaction are stopped by vacuum filtration onto 0.3% polyethyleneimine soaked filter mats using Filtermate harvester. Scintillation cocktail is then melted onto microwave-dried filters on a hot plate and the radio activity is counted in Microbia counter.

Assay [3] deals with 5-hydroxytryptamine receptor 6 (Homo sapiens, UniProt P50406). Put plainly: PDSP Secondary Binding target: HTR6 - Compounds are tested at 10 uM concentration, plate are incubated at room temperature in the dark for 90 minutes. Reaction are stopped by vacuum filtration onto 0.3% polyethyleneimine soaked filter mats using Filtermate harvester. Scintillation cocktail is then melted onto microwave-dried filters on a hot plate and the radio activity is counted in Microbia counter.
Chain of 5-hydroxytryptamine receptor 6 (P50406 whole entry): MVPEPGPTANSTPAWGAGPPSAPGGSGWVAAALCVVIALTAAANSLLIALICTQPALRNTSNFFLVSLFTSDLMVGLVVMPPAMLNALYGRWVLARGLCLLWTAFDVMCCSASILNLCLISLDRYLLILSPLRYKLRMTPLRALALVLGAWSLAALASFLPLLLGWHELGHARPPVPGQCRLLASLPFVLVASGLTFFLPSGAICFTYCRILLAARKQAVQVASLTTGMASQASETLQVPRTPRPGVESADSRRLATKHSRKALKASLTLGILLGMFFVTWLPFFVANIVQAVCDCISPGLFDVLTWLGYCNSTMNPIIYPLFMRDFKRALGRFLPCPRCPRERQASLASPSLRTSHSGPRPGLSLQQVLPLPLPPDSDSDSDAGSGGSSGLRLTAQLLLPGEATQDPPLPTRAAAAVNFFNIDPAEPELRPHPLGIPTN

In assay [4] the target is Sigma non-opioid intracellular receptor 1 (Homo sapiens, UniProt Q99720). Put plainly: PDSP Secondary Binding target: SIGMAR1 - Compounds are tested at 10 uM concentration, plate are incubated at room temperature in the dark for 90 minutes. Reaction are stopped by vacuum filtration onto 0.3% polyethyleneimine soaked filter mats using Filtermate harvester. Scintillation cocktail is then melted onto microwave-dried filters on a hot plate and the radio activity is counted in Microbia counter.
Chain of Sigma non-opioid intracellular receptor 1 (Q99720 whole entry): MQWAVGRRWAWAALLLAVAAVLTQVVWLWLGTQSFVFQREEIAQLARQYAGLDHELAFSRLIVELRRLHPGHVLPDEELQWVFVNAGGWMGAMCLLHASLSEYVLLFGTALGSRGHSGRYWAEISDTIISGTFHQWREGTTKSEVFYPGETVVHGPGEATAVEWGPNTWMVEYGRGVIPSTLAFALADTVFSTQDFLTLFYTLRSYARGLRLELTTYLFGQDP

Another assay concerns the target D(2) dopamine receptor (Homo sapiens, UniProt P14416). The assay can be described thus: PDSP Secondary Binding target: DRD2 - Compounds are tested at 10 uM concentration, plate are incubated at room temperature in the dark for 90 minutes. Reaction are stopped by vacuum filtration onto 0.3% polyethyleneimine soaked filter mats using Filtermate harvester. Scintillation cocktail is then melted onto microwave-dried filters on a hot plate and the radio activity is counted in Microbia counter.

Assay [5] has as its target Kappa-type opioid receptor (Homo sapiens, UniProt P41145). Put plainly: PDSP Secondary Binding target: OPRK1 - Compounds are tested at 10 uM concentration, plate are incubated at room temperature in the dark for 90 minutes. Reaction are stopped by vacuum filtration onto 0.3% polyethyleneimine soaked filter mats using Filtermate harvester. Scintillation cocktail is then melted onto microwave-dried filters on a hot plate and the radio activity is counted in Microbia counter.

The next assay addresses Translocator protein (Homo sapiens, UniProt P30536). Put plainly: PDSP Secondary Binding target: TSPO - Compounds are tested at 10 uM concentration, plate are incubated at room temperature in the dark for 90 minutes. Reaction are stopped by vacuum filtration onto 0.3% polyethyleneimine soaked filter mats using Filtermate harvester. Scintillation cocktail is then melted onto microwave-dried filters on a hot plate and the radio activity is counted in Microbia counter.

The target in assay [6] is Muscarinic acetylcholine receptor M3 (Homo sapiens, UniProt P20309). The assay can be described thus: PDSP Secondary Binding target: CHRM3 - Compounds are tested at 10 uM concentration, plate are incubated at room temperature in the dark for 90 minutes. Reaction are stopped by vacuum filtration onto 0.3% polyethyleneimine soaked filter mats using Filtermate harvester. Scintillation cocktail is then melted onto microwave-dried filters on a hot plate and the radio activity is counted in Microbia counter.
Chain of Muscarinic acetylcholine receptor M3 (P20309 whole entry): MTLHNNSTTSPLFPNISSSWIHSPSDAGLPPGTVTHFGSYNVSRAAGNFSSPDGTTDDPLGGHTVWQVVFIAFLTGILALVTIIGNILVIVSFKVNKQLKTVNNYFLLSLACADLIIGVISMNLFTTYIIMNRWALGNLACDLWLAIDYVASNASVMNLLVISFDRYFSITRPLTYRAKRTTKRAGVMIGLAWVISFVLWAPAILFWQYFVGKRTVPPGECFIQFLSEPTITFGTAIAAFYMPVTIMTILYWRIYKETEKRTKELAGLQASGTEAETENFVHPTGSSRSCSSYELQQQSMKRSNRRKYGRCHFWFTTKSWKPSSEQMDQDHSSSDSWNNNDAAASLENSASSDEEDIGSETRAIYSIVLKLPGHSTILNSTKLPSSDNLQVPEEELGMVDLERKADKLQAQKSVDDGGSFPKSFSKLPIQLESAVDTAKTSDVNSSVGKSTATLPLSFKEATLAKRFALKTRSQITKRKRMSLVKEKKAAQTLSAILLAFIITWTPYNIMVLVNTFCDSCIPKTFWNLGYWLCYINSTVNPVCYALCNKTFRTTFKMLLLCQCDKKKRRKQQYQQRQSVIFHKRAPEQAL

Assay [7] has as its target T2, Muscarinic acetylcholine receptor M5 (Homo sapiens, UniProt P08912).
T2 sequence (P08912 whole entry): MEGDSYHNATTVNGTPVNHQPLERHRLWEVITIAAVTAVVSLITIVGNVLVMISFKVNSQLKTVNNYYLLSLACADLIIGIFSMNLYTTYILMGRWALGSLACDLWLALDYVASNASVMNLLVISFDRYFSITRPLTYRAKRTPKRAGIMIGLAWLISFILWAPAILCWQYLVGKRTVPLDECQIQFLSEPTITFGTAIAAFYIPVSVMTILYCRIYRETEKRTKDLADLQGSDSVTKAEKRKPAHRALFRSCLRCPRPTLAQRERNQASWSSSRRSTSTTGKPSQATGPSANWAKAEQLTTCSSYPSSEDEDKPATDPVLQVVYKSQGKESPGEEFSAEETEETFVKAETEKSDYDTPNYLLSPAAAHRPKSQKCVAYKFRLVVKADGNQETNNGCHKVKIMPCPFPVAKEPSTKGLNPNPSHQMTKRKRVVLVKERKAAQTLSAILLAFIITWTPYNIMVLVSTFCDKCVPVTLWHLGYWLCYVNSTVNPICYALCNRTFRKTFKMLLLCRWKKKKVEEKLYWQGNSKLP
The assay can be described thus: PDSP Secondary Binding target: CHRM5 - Compounds are tested at 10 uM concentration, plate are incubated at room temperature in the dark for 90 minutes. Reaction are stopped by vacuum filtration onto 0.3% polyethyleneimine soaked filter mats using Filtermate harvester. Scintillation cocktail is then melted onto microwave-dried filters on a hot plate and the radio activity is counted in Microbia counter.

Assay [8] has as its target T3, Muscarinic acetylcholine receptor M1 (Homo sapiens, UniProt P11229).
T3 sequence (P11229 whole entry): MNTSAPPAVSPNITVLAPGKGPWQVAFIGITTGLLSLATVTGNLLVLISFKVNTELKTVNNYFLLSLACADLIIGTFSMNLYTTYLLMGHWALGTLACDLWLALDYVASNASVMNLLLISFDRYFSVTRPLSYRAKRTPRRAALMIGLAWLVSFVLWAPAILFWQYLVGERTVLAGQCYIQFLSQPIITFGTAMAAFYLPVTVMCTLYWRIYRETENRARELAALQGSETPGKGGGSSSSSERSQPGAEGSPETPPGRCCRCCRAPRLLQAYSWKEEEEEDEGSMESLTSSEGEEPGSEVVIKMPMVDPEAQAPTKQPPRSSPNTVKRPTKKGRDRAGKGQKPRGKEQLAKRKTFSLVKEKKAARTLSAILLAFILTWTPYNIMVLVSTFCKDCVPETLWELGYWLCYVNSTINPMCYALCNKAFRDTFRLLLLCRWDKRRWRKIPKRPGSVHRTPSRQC
The assay can be described thus: PDSP Secondary Binding target: CHRM1 - Compounds are tested at 10 uM concentration, plate are incubated at room temperature in the dark for 90 minutes. Reaction are stopped by vacuum filtration onto 0.3% polyethyleneimine soaked filter mats using Filtermate harvester. Scintillation cocktail is then melted onto microwave-dried filters on a hot plate and the radio activity is counted in Microbia counter.

For the next assay, the target named is D(1A) dopamine receptor (Homo sapiens, UniProt P21728). The assay can be described thus: PDSP Secondary Binding target: DRD1 - Compounds are tested at 10 uM concentration, plate are incubated at room temperature in the dark for 90 minutes. Reaction are stopped by vacuum filtration onto 0.3% polyethyleneimine soaked filter mats using Filtermate harvester. Scintillation cocktail is then melted onto microwave-dried filters on a hot plate and the radio activity is counted in Microbia counter.
Chain of D(1A) dopamine receptor (P21728 whole entry): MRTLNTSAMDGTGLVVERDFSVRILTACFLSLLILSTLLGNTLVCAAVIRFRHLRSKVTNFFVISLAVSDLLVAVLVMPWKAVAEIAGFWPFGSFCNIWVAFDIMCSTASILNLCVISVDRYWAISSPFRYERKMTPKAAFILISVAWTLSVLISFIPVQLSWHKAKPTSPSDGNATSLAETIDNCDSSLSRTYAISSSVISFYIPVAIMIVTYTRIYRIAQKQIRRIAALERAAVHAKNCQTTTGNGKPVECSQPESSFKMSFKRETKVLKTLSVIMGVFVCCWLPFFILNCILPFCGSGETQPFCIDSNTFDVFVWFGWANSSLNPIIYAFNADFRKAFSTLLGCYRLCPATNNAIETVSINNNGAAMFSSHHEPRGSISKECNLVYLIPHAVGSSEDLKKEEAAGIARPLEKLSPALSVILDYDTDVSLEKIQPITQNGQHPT

The target of assay [9] is Sigma intracellular receptor 2 (Homo sapiens, UniProt Q5BJF2). The assay can be described thus: PDSP Secondary Binding target: TMEM97 - Compounds are tested at 10 uM concentration, plate are incubated at room temperature in the dark for 90 minutes. Reaction are stopped by vacuum filtration onto 0.3% polyethyleneimine soaked filter mats using Filtermate harvester. Scintillation cocktail is then melted onto microwave-dried filters on a hot plate and the radio activity is counted in Microbia counter.
Chain of Sigma intracellular receptor 2 (Q5BJF2 whole entry): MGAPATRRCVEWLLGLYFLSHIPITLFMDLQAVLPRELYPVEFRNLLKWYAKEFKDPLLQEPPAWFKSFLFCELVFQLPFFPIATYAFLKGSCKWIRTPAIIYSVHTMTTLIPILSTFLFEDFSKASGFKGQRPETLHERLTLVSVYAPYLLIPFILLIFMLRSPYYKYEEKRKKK

The target of assay [10] is T4, Muscarinic acetylcholine receptor M4 (Homo sapiens, UniProt P08173).
T4 sequence (P08173 whole entry): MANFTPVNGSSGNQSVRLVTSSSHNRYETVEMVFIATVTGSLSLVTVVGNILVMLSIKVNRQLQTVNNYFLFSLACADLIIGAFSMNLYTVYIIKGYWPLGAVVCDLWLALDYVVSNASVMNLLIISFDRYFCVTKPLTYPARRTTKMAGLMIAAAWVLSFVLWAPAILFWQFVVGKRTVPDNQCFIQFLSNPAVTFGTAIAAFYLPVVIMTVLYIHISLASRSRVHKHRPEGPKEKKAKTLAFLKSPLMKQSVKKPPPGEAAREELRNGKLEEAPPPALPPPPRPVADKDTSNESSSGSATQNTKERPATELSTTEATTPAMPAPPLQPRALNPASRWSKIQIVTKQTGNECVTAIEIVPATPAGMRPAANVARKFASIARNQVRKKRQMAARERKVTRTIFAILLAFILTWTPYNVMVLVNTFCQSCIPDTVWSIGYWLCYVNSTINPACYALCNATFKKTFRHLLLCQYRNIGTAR
The assay can be described thus: PDSP Secondary Binding target: CHRM4 - Compounds are tested at 10 uM concentration, plate are incubated at room temperature in the dark for 90 minutes. Reaction are stopped by vacuum filtration onto 0.3% polyethyleneimine soaked filter mats using Filtermate harvester. Scintillation cocktail is then melted onto microwave-dried filters on a hot plate and the radio activity is counted in Microbia counter.

Another assay deals with D(1B) dopamine receptor (Homo sapiens, UniProt P21918). Put plainly: PDSP Secondary Binding target: DRD5 - Compounds are tested at 10 uM concentration, plate are incubated at room temperature in the dark for 90 minutes. Reaction are stopped by vacuum filtration onto 0.3% polyethyleneimine soaked filter mats using Filtermate harvester. Scintillation cocktail is then melted onto microwave-dried filters on a hot plate and the radio activity is counted in Microbia counter.
Chain of D(1B) dopamine receptor (P21918 whole entry): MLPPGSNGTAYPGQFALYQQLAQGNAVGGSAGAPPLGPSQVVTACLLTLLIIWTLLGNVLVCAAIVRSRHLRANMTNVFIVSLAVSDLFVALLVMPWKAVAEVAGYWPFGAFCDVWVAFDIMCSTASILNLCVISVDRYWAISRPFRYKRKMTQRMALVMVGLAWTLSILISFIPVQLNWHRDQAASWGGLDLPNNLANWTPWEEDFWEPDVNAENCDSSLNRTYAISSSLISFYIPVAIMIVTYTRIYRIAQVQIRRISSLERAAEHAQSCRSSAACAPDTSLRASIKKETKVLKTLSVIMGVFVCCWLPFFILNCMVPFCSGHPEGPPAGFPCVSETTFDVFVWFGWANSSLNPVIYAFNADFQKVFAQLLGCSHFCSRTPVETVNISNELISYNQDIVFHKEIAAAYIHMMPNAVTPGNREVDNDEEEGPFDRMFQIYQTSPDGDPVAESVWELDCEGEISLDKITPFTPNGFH

The next assay concerns the target D(3) dopamine receptor (Homo sapiens, UniProt P35462). Put plainly: PDSP Secondary Binding target: DRD3 - Compounds are tested at 10 uM concentration, plate are incubated at room temperature in the dark for 90 minutes. Reaction are stopped by vacuum filtration onto 0.3% polyethyleneimine soaked filter mats using Filtermate harvester. Scintillation cocktail is then melted onto microwave-dried filters on a hot plate and the radio activity is counted in Microbia counter.

Assay [11] concerns the target 5-hydroxytryptamine receptor 2A (Homo sapiens, UniProt P28223). The assay can be described thus: PDSP Secondary Binding target: HTR2A - Compounds are tested at 10 uM concentration, plate are incubated at room temperature in the dark for 90 minutes. Reaction are stopped by vacuum filtration onto 0.3% polyethyleneimine soaked filter mats using Filtermate harvester. Scintillation cocktail is then melted onto microwave-dried filters on a hot plate and the radio activity is counted in Microbia counter.

The target in assay [12] is Beta-2 adrenergic receptor (Homo sapiens, UniProt P07550). The assay can be described thus: PDSP Secondary Binding target: ADRB2 - Compounds are tested at 10 uM concentration, plate are incubated at room temperature in the dark for 90 minutes. Reaction are stopped by vacuum filtration onto 0.3% polyethyleneimine soaked filter mats using Filtermate harvester. Scintillation cocktail is then melted onto microwave-dried filters on a hot plate and the radio activity is counted in Microbia counter.
Chain of Beta-2 adrenergic receptor (P07550 whole entry): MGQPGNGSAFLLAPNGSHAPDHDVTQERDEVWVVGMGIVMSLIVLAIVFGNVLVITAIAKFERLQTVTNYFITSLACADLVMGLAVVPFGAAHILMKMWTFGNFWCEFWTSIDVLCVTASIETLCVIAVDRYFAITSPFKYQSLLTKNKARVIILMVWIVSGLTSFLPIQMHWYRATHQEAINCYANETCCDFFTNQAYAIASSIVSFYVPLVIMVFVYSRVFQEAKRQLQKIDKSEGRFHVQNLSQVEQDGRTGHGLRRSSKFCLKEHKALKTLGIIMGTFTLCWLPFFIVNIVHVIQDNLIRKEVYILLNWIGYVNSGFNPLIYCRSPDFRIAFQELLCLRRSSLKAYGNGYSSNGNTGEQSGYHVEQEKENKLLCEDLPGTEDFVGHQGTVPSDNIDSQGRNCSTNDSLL

This passage reports Ki results from ChEMBL document CHEMBL5442175, “EUbOPEN Chemogenomics Library - PDSP Secondary Binding” (2024).

Chain of 5-hydroxytryptamine receptor 2B (P41595 whole entry): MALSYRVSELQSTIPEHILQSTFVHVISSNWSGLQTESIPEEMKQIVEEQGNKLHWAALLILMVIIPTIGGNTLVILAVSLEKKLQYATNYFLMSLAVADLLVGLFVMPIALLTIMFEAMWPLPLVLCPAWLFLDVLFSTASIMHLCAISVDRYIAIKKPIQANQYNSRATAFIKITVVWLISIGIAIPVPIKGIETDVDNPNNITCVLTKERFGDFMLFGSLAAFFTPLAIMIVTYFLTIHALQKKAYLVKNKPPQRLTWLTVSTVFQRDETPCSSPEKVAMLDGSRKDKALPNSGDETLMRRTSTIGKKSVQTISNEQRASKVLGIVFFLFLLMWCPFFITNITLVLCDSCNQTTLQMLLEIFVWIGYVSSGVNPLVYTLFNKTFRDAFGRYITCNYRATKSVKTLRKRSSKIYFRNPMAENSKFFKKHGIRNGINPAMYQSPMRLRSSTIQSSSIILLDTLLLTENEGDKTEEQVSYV
Chain of D(3) dopamine receptor (P35462 whole entry): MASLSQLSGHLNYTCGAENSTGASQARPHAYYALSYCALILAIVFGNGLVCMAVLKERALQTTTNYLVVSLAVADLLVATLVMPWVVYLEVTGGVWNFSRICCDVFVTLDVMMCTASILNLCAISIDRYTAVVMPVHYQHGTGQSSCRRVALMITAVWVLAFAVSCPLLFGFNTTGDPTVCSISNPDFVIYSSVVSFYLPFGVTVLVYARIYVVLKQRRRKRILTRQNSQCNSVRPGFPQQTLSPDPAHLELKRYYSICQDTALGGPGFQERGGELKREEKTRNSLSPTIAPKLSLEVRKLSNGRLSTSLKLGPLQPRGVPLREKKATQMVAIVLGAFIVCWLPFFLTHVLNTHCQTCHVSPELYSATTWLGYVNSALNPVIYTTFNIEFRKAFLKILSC
Chain of Kappa-type opioid receptor (P41145 whole entry): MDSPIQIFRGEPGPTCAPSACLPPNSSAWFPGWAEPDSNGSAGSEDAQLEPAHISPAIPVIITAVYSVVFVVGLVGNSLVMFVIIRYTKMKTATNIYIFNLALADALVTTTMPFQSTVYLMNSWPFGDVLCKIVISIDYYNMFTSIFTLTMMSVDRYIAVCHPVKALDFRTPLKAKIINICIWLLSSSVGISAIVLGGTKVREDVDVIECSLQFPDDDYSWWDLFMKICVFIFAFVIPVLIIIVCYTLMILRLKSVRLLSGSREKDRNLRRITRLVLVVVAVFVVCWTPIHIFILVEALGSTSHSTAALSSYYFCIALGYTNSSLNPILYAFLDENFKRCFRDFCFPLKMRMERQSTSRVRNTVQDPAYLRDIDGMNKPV
Chain of 5-hydroxytryptamine receptor 2A (P28223 whole entry): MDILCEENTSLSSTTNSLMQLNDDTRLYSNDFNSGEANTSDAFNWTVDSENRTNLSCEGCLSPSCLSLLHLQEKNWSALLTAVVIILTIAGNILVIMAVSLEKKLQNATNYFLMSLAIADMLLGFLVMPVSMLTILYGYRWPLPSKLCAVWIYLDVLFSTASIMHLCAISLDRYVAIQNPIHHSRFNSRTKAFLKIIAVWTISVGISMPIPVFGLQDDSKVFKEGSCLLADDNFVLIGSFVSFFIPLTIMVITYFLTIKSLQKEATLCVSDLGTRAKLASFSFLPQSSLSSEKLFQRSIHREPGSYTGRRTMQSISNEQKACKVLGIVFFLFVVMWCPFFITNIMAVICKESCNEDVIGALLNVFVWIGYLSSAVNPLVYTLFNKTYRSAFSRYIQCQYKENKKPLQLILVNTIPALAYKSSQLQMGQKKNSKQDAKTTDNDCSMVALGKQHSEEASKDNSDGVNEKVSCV
Chain of Translocator protein (P30536 whole entry): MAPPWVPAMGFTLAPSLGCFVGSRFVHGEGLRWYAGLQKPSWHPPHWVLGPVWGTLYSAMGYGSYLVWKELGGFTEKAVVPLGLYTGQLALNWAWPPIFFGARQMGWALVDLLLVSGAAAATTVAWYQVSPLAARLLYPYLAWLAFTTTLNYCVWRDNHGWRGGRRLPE

Take `Cc1cc(NC(=O)Nc2ccc(N(C)C)cc2)c2cc(F)cc(F)c2n1`: the Ki (commonly a measure of affinity in units of concentration, obtained from inhibition or displacement) in assay [1] was 1700 nM; in assay [2], above 10000 nM; in assay [3], above 10000 nM; in [4], 5380 nM; at D(2) dopamine receptor it was 9770 nM.

Regarding `Cc1nc(C(=O)N2CCC[C@H]2Cc2nnc(-c3ccccc3)o2)c(-c2ccccc2F)s1`, the Ki in assay [1] is 3050 nM; in assay [2], above 10000 nM; in assay [5], 704 nM; on Translocator protein, 789 nM.

With `CCN(CC)CCCCC1CCN(CC(=O)N2c3ccccc3C(=O)Nc3cccnc32)CC1`, the Ki in [6] turned out to be 152 nM; in assay [7], 944 nM; in assay [8], 258 nM; at D(1A) dopamine receptor it was 740 nM; in assay [9], 1310 nM; in assay [10], 13.6 nM. For the same molecule, the Ki at D(1B) dopamine receptor is 1850 nM.

Take `CCOC(=O)c1cc(C#N)c(N2CCC(C(=O)NS(=O)(=O)Cc3ccccc3)CC2)nc1C`: the results for the Ki (in assay [2]; at D(3) dopamine receptor) were 9070 nM and 2810 nM, respectively.

Consider `CC(C)NC(=O)c1ccc(C#Cc2ccncc2)cn1`, for which the Ki came to 6750 nM in assay [2] and 1100 nM in assay [4].

With `Cc1cc(C(=O)N2Cc3cnn(C)c3Nc3ccccc32)ccc1CNC(=O)N1CCC[C@H]1C(=S)N1CCCN(C)CC1`, the Ki was 707 nM in assay [6]; 3440 nM in assay [2]; 467 nM in assay [7]; 2050 nM in assay [5]; 249 nM in assay [10]; 912 nM on D(3) dopamine receptor.

`CC[C@@H]1CN2C(=O)N(C)c3nc(-c4ccccc4)[nH]c3C2=N1`: the results for the Ki in [11], in assay [4] and in [12] were 9750 nM, 668 nM and above 10000 nM, respectively.

On to `Cc1cccc(NC(=O)N[C@@H]2N=C(c3ccccc3)c3ccccc3N(C)C2=O)c1` [L-365260], for which the figures for the Ki (in [1]; in assay [11]; on D(1A) dopamine receptor) were 6210 nM, 2140 nM and 3020 nM, respectively.

As to `CC(C)(C)NC[C@H](O)COc1nsnc1N1CCOCC1` [TIMOLOL], the Ki in assay [4] is 391 nM; on D(1A) dopamine receptor it was 5280 nM.

For `O=C(O)C1CN(Cc2ccc(-c3nc4cc(Cc5ccccc5F)ccc4s3)c(F)c2)C1`, the figures for the Ki (on D(3) dopamine receptor; in assay [12]) were 1420 nM and above 10000 nM, respectively.
